The source of these data is patent US9073835B2, “N-acylthiourea and N-acylurea inhibitors of the Hedgehog protein signalling pathway” (Centre National De La Recherche Scientifique, priority 2008, dated 2015).

pIC50: −log10 of the molar value. Some results are limits rather than exact numbers.

Series [1] concerns Hedgehog protein signaling pathway. Briefly: Inhibition of SAG-induced alkaline phosphatase activity (differentiation) in C3H10T1/2 cells. Type of series: cell-based. To be noted: for inhibition at 10 µM: C3H 10T1/2, 10 μM test compound. The protocol: The effect of compounds with formula (I) as claimed in the invention on inhibition of the Hedgehog protein signaling pathway was determined by analysis of differentiation in the pluripotent fibroblast cell line C3H10T1/2 after activation of this pathway in these cells using a synthetic activator: SAG.
The compounds with formula (I) to be tested were dissolved in dimethylsulfoxide to a concentration of 10 mM, then stored at a temperature of −20° C. until use.
The pluripotent fibroblast cell line C3H10T1/2 (ATCC) was cultivated under the conditions recommended by the ATCC. These cells were activated using 0.1 μM of SAG, employing the methods described by Chen et al., Proc. Natl. Acad. Sci. USA, 2002, 99, 14071 and Frank-Kamenetsky et al., J. Biol., 2002, 1, 10.
Activation with SAG provokes differentiation of the cell line and allows them to express alkaline phosphatase. It is then possible to measure the activity of the Hedgehog protein signaling pathway by measuring the alkaline phosphatase activity.
The C3H10T1/2 cells were plated onto 96-well plates at a density of […], 24 hours before addition of the test compounds in a concentration of 1 nM to 30 μM and in the presence of 0.1 μM of SAG using DMEM supplemented with 10% fetal calf serum as the culture medium. The tests were carried out in quadruplicate. The plates were then incubated for 5-6 days at a temperature of 37° C. in an atmosphere of 5% CO2. The cells were washed in a cold phosphate buffer (“Phosphate Buffer Serum”: PBS) then lysed by sonication at 4° C. in 50 μl of a solution containing 0.9% of NaCl and 0.2% of Triton X-100.
By way of comparison, the activity of a known inhibitor of the Hedgehog protein signaling pathway, CURIS 61 414, as described, for example, by Frank-Kamenetsky M. et al. (J. Biol., 2002, 1, 10), was tested under the same conditions as those used to test the various compounds with formula (I) as claimed in the invention.
The alkaline phosphatase activity measurement in the lysates obtained was then carried out using the method described by Pepinsky et al. (J. Biol. Chem., 1998, 273, 14037). After adding 100 μl of reaction buffer (200 mM Tris-HCl; pH 10.5; 0.4 M of 2-amino-2-methylpropanol and 8 mM of MgCl2) and 50 μl of substrate (4 mM of disodium p-nitrophenyl phosphate), the lysates were incubated at 37° C. for 30-60 min, then the optical density was read at a wavelength of 415 nm.

In another series the target is T1, mouse Smoothened protein (Mus musculus, UniProt P56726).
T1 construct: expressed in transfected cells; host or cells: HEK293
Briefly: Competitive Bodipycyclopamine binding on HEK293 cells transfected with mouse Smoothened. To be noted: for pIC50: 5 nM Bodipycyclopamine, 2 hours at 37° C., HEK293 cells expressing mouse Smoothened; for Bodipycyclopamine binding competition: fluorescence microscopy, FIGS. 2 and 3. The method, then:
HEK293 cells were plated in a quantity of 70 000 cells per well onto glass cover slips treated with poly-D-lysine into 24-well plates, and transfected the next day with 0.25 μg of plasmid encoding the mouse Smoothened protein (Masdeu C., Faure H., Coulombe J., Schoenfelder A., Mann A., Brabet I., Pin J-P., Traiffort E. and Ruat M., Identification and characterization of Hedgehog modulator properties after functional coupling of Smoothened to G15, Biochem Biophys Res. Commun., 2006, 349:471-479), using 0.7 μL of fugene6 (Roche Biochemicals). After 48 hours, the culture medium was eliminated, the cells were rinsed once with 1 mL of a phosphate buffer solution, PBS (Phosphate Buffered Saline), then fixed for 20 minutes in the presence of an iced 4% solution of paraformaldehyde (PFA) and 0.12M glucose in a PBS phosphate buffer solution. The cells were then rinsed twice and washed twice for 5 minutes with 1 mL of a phosphate buffer solution and 0.5% of fetal calf serum (PBS-FCS). Next, 1 mL of Bodipycyclopamine (BC) (Chen, J. K., Taipale, J., Cooper, M. K., and Beachy, P. A., Genes Dev., 2002, 16 (21), 2743-2748), diluted to 5 nM in PBS-FCS, in the presence of compounds 31 and 38 of the invention, was applied to the cells for 2 hours at 37° C. The cells were then washed twice for 5 minutes with 1 mL of PBS-FCS and brought into the presence of 1 mL of a PBS 1× phosphate buffer solution. Finally, the cover slips were mounted on a glass slide in the presence of Vectashield containing DAPI (4′,6′-DiAmidino-2-Phenyl Indole) to stain the cell nuclei (Vector).
In FIG. 2, the intensity of the fluorescence was analyzed using Simple PCI 6.2 software (Hamamatsu Corporation), then related to the surface area of the nuclei present in the photograph.

The mark [2] stands for this setting: Mus musculus, percentage of alkaline phosphatase activity induced by SAG.
[3] abbreviates: Mus musculus, C3H 10T1/2, after induction by 0.1 μM SAG.

T1 sequence (P56726 33-793): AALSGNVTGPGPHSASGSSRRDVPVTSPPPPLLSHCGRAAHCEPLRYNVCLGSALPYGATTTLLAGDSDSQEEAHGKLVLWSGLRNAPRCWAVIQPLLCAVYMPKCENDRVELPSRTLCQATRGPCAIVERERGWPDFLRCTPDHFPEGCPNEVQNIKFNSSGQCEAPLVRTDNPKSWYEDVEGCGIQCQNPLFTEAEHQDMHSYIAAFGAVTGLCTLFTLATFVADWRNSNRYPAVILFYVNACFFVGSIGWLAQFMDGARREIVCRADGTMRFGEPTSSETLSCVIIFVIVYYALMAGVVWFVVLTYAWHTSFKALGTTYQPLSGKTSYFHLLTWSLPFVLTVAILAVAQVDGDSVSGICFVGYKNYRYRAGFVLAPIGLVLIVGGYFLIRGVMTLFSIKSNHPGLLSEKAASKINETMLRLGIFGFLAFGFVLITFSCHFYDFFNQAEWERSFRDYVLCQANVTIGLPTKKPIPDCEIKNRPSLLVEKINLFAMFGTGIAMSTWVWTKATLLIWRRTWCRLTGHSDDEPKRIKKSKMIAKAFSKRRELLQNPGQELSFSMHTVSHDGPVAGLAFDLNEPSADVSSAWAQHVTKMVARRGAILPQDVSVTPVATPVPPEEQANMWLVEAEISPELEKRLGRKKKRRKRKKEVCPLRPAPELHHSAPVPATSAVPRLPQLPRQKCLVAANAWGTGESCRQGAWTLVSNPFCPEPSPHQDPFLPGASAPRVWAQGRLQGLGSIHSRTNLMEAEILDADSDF

Usually inhibition stands for the drop in the measured response relative to a control, in per cent. Read a high inhibition as strong suppression. In general, IC50 refers to the midpoint of a concentration-inhibition curve. A high value points to weaker potency. Broadly, the melting point is the temperature of the solid-liquid transition. The compound `COc1ccc(C(=O)Nc2cccc(NC(=S)NC(=O)c3cc(OC)c(OC)c(OC)c3)c2)cc1` [Compound 1, N-[[[3-(4-methoxy-benzoylamino)phenyl]amino]thioxomethyl]-3,4,5-methoxy-benzamide] came in with a melting point of 147 °C. In addition, in series [1] (setting [2]), the inhibition at 10 µM was greater than 80%. In addition, in series [1] (setting [3]), the IC50 lay within 1 to 3 µM. One may read the pIC50 as the IC50 on a negative log10 scale, so that one unit is a factor of ten. In series [1] (setting [2]), `COc1cc(C(=O)NC(=O)Nc2cccc(NC(=O)c3ccccc3)c2)cc(OC)c1OC` [Compound 31, N-[[[3-(benzoylamino)phenyl]amino]oxomethyl]-3,4,5-methoxy-benzamide] yielded an inhibition at 10 µM greater than 80%. Besides, the IC50 in series [1] (setting [3]) was 0.01 to 1 µM. On mouse Smoothened protein, the pIC50 was 6.92 and the Bodipycyclopamine binding competition result is given as “binding competition was observed”. Turning to `COc1cc(C(=O)NC(=S)Nc2cc(Cl)cc(NC(=O)c3ccccc3)c2)cc(OC)c1OC` [Compound 35, N-[[[5-chloro-3-(benzoylamino)phenyl]amino]thioxomethyl]-3,4,5-methoxy-benzamide], the inhibition at 10 µM in series [1] (setting [2]) fell in the range of 20 to 80%. In turn, `COc1cc(C(=O)NC(=O)Nc2ccc(Cl)c(NC(=O)c3ccc(-c4ccccc4)cc3)c2)cc(OC)c1OC` [Compound 37, N-[[[4-Chloro-3-(4-phenyl-benzoylamino)phenyl]amino]oxomethyl]-3,4,5-methoxy-benzamide] came in with an inhibition at 10 µM in series [1] (setting [2]) of 20 to 80%.

As to `COc1cc(C(=O)NC(=S)Nc2ccc(Cl)c(C(=O)Nc3ccc(N(C)C)cc3)c2)cc(OC)c1OC` [Compound 39], the inhibition at 10 µM in series [1] (setting [2]) is greater than 80%. This compound returned an IC50 in series [1] (setting [3]) of 1 to 3 µM. In series [1] (setting [2]), `COc1ccc(NC(=O)c2cc(NC(=S)NC(=O)c3cc(OC)c(OC)c(OC)c3)ccc2Cl)cc1` [Compound 40] registered an inhibition at 10 µM of 20 to 80%. For the compound `COc1cc(C(=O)NC(=S)Nc2cc(Br)cc(C(=O)Nc3ccccc3)c2)cc(OC)c1OC` [Compound 41], the inhibition at 10 µM in series [1] (setting [2]) was 20 to 80%. Compound `COc1cc(C(=O)NC(=S)Nc2ccc(Cl)c(C(=O)Nc3ccc(Cl)cc3)c2)cc(OC)c1OC` [Compound 43] returned an inhibition at 10 µM in series [1] (setting [2]) greater than 80%. In the case of `COc1cc(C(=O)NC(=O)Nc2ccc(Cl)c(C(=O)Nc3ccccc3)c2)cc(OC)c1OC` [Compound 44], the inhibition at 10 µM in series [1] (setting [2]) fell in the range of 20 to 80%.

Take `COc1cc(C(=O)NC(=O)Nc2cccc(NC(=O)c3ccc(-c4ccccc4)cc3)c2C)cc(OC)c1OC` [Compound 45]: in series [1] (setting [2]), the inhibition at 10 µM was greater than 80%. This compound also returned an IC50 in series [1] (setting [3]) of 0.01 to 1 µM.

`COc1cc(C(=O)NC(=S)Nc2cccc(NC(=O)c3ccc(-c4ccccc4)cc3)c2C)cc(OC)c1OC` [Compound 46] registered an inhibition at 10 µM in series [1] (setting [2]) of 5 to 20%. In series [1] (setting [2]), `COc1cc(C(=O)NC(=O)Nc2cccc(NC(=O)c3ccc(Cl)cc3)c2)cc(OC)c1OC` [Compound 47, N-[[[-3-(4-chloro-benzoylamino)phenyl]amino]oxomethyl]-3,4,5-methoxy-benzamide] had an inhibition at 10 µM greater than 80%. In series [1] (setting [2]), `COc1cc(OC)c(C(=O)NC(=O)Nc2cccc(NC(=O)c3ccccc3)c2)cc1OC` [Compound 48, N-[[[-3-(benzoylamino)phenyl]amino]oxomethyl]-2,4,5-methoxy-benzamide] came in with an inhibition at 10 µM of 20 to 80%. The same compound displayed an IC50 in series [1] (setting [3]) of 1 to 3 µM. `COc1ccc(C(=O)NC(=O)Nc2cccc(NC(=O)c3ccccc3)c2)cc1` [Compound 49, N-[[[-3-(benzoylamino)phenyl]amino]oxomethyl]-4-methoxy-benzamide] showed an inhibition at 10 µM in series [1] (setting [2]) of 20 to 80%.

For `O=C(NC(=O)c1ccccc1)Nc1cccc(NC(=O)c2ccccc2)c1` [Compound 50, N-[[[-3-(benzoylamino)phenyl]amino]oxomethyl]-benzamide], the inhibition at 10 µM in series [1] (setting [2]) is greater than 80%. Take `COc1cc(C(=O)NC(=S)Nc2cccc(NC(=O)Nc3ccccc3)c2)cc(OC)c1OC` [Compound 51, 3,4,5-trimethoxy-N-(3-(3-phenylureido)phenylcarbamothioyl)-benzamide]: the inhibition at 10 µM in series [1] (setting [2]) was greater than 80%. In addition, the IC50 in series [1] (setting [3]) lay in the range of 1 to 3 µM. As to `COc1cc(C(=O)NC(=S)Nc2cccc(NC(=O)Nc3ccc(-c4ccccc4)cc3)c2)cc(OC)c1OC` [Compound 52, N-(3-(3-biphenyl-4-ylureido)phenylcarbamothioyl)-3,4,5-trimethoxybenzamide], the inhibition at 10 µM in series [1] (setting [2]) was greater than 80%. The compound further returned a 50% inhibitory concentration (IC50) in series [1] (setting [3]) of 0.01 to 1 µM.

`COc1cc(C(=O)NC(=O)Nc2cccc(-c3cc4ccccc4[nH]3)c2)cc(OC)c1OC` [Compound 53, N-(3-(1H-indol-2-yl)phenylcarbamoyl)-3,4,5-trimethoxybenzamide]: the inhibition at 10 µM in series [1] (setting [2]) is greater than 80%. For the same compound, the IC50 in series [1] (setting [3]) was 0.01 to 1 µM.

In series [1] (setting [2]), `COc1cc(C(=O)NC(=S)Nc2cccc(-c3cn4ccccc4n3)c2)cc(OC)c1OC` [Compound 55, N-(3-(imidazo[1,2-a]pyridin-2-yl)phenylcarbamothioyl)-3,4,5-trimethoxybenzamide] came in with an inhibition at 10 µM greater than 80%. In series [1] (setting [3]), the IC50 lay within 0.01 to 1 µM.

In series [1] (setting [2]), `COc1cc(C(=O)NC(=S)Nc2ccc(C)c(-c3nc4ccccc4[nH]3)c2)cc(OC)c1OC` [Compound 56, N-(3-(1H-benzo[d]imidazol-2-yl)-4-methylphenylcarbamothioyl)-3,4,5-trimethoxybenzamide] had an inhibition at 10 µM of 20 to 80%. In series [1] (setting [2]), `COc1cc(C(=O)NC(=S)Nc2cccc(-n3ccc4ccccc43)c2)cc(OC)c1OC` [Compound 57, N-(3-(1H-indol-1-yl)phenylcarbamothioyl)-3,4,5-trimethoxybenzamide] returned an inhibition at 10 µM greater than 80%. In series [1] (setting [3]), this compound returned an IC50 of 1 to 3 µM. In the same order, the values of `COc1cc(C(=O)NC(=S)Nc2cccc(-c3cn4ccsc4n3)c2)cc(OC)c1OC` [Compound 58, N-(3-(imidazo[2,1-b]thiazol-6-yl)phenylcarbamothioyl)-3,4,5-trimethoxybenzamide] are greater than 80% and 1 to 3 µM.

The compound `COc1cc(C(=O)NC(=O)Nc2cccc(NC(=O)Nc3ccc(-c4ccccc4)cc3)c2)cc(OC)c1OC` [Compound 59, N-(3-(3-biphenyl-4-ylureido)phenylcarbamoyl)-3,4,5-trimethoxybenzamide] returned an inhibition at 10 µM in series [1] (setting [2]) greater than 80%. With `CC1=C2C[C@H]3[C@@H](CC=C4C[C@@H](O)CC[C@@]43C)[C@@H]2CC[C@]12O[C@@H]1C[C@H](C)CN[C@H]1[C@H]2C` [Cyclopamine, reference compound], the Bodipycyclopamine binding competition entry at mouse Smoothened protein was “binding competition was observed”.

For the compound “N-[[[3-(benzoylamino)phenyl]amino]thioxomethyl]-3,4,5-methoxy-benzamide [Compound 38]”, the “% INHIBITION of alkaline phosphatase activity” value in series [1] (10 μM test compound, percentage of alkaline phosphatase activity induced by SAG) is recorded as “A (the letter A corresponds to an inhibition of more than 80%)”. Further, the IC50 in series [1] (after induction by 0.1 μM SAG) was 0.01 to 1 µM. Moreover, at mouse Smoothened protein, the pIC50 was 6.30 and the Bodipycyclopamine binding competition result is recorded as “binding competition was observed”.
